The test system of series [1] is OVA-induced allergic airway inflammation. The series can be described thus: Inflammatory cell infiltrate in lung tissue (HE sections, CAST), OVA model, i.p. dapansutrile. Type of series: in vivo, C57BL/6j mice. The settings on record: 60 mg/kg i.p.; treated vs asthmatic mice; p<0.01. The procedure: C57BL/6j mice were sensitized to OVA (ovalbumin) by three intraperitoneal (i.p.) injections of 10 μg OVA adsorbed to 150 mg aluminum hydroxide on days 1, 14, and 21. This sensitization results in an adoptive immune response against OVA with OVA-specific TH2 cells and the production of OVA-specific antibodies of the subclasses IgE and […]. To induce acute allergic airway inflammation, mice were exposed three times to an OVA aerosol (1% w/v in PBS) on days 26, 27, and 28. Healthy control animals (healthy group) were sham sensitized to PBS and subsequently challenged with PBS aerosol. […] The following readouts were measured according to Lunding, 2015b. • General infiltration of inflammatory cells into the broncheoalveolar lumen • Determination of the specific infiltration of eosinophils, neutrophils and lymphocytes by histologic differentiation of the bronchoalveolar lavage (BAL) cells. • Goblet cell hyperplasia by CAST system (Computer Assisted Stereological Toolbox), including making microscopic pictures of the airways. • Airway resistance in response to methacholine to determine the airway hyperresponsiveness. Specifically, inflammatory cell subpopulations (eosinophils, macrophages, neutrophils, lymphocytes) infiltrating the bronchoalveolar lumen were quantified using cyto-spinned and quick-diff-stained cells from bronchoalveolar lavage fluids (BALF). […]

In series [2] the test system is IFN-γ, TNFα, IL-1β, IL-4, IL-5, IL-6, IL-10, IL-13, and IL17A. The series can be described thus: Cytometric bead array of cytokines in BALF of Example 1. Type of series: in vivo, C57BL/6j mice. The note with it: 60 mg/kg i.p., treated vs asthmatic mice. The text has this:
Cytometric bead arrays were used as a method to assess the concentration of cytokines of IFN-γ, TNFα, IL-1β, IL-4, IL-5, IL-6, IL-10, IL-13, and IL17A) in the BALF of Example 1. The beads in this array were coated with antibodies specific against a variety of cytokines, some relevant and known to be affected by NLRP3 signaling.

Series [3] has as its system OVA-induced allergic airway inflammation. As to the kind of experiment: Goblet cells covering airway mucosa, OVA model, oral dapansutrile in food. Type of series: in vivo, mice. The procedure:
(§1) The experimental protocols of the mouse model were the same as those described in Example 1, except dapansutrile was administered orally by food. The already-sensitized mice were fed ad libidum with food pellets containing 7.5 g/kg dapansutrile starting on day 22 for one week; the first aerosol challenge was on day 26. Mice typically consume about 4 g of food per day, resulting in an approximate daily dose of 0 mg/kg/day for control groups and 1,000 mg/kg/day for the treatment groups. […] OVA-sensitized, OVA-challenged asthmatic controls (asthmatic) were fed with control food pellets without dapansutrile. […] (data not shown).

The test system is the same in series [4]. As to the kind of experiment: Airway resistance in response to MCh, OVA model, oral dapansutrile in food. In kind it is in vivo, mice. The note with it: 100 mg/mL MCh. The procedure: as §1, with “Baseline airway resistance of healthy animals was 2.58 cm H2O·s/mL at 100 mg/mL MCh.” for “(data not shown).”
The conditions of series [5]: humans, oral 1000 mg/day; Marchetti 2018b; cited from earlier work.

Molecules are shown by their SMILES.

As to `CS(=O)(=O)CCC#N` [dapansutrile, 3-methanesulfonylpropionitrile], in series [1], the “number of inflammatory cells in lung tissue (volume of inflammatory cell infiltrate per basal membrane area)” value is recorded as “significantly lower”. Further, the “concentrations of all measured cytokines in BALF” value in series [2] is “some reduction”. For the same molecule, the “IL-1β concentration in BALF” value in series [2] (p<0.001) is listed as “statistically significant reduction”. The “IL-6 concentration in BALF” value in series [2] (p<0.05) is “statistically significant reduction”. In addition, the “change of goblet cells covering the airway mucosa” value in series [3] (oral, 7.5 g/kg in food, vs asthmatic mice) is −29%. Besides, the “goblet cells covering the airway mucosa” value in series [3] (treated mice, oral 7.5 g/kg in food, asthmatic 15.75%) worked out at 11.16%. Also, the “reduction of airway resistance in response to MCh” value in series [4] (oral, 7.5 g/kg in food, vs sham-treated asthmatic controls, p<0.01) is recorded as “approximately 60%”. Moreover, in series [4] (treated mice, oral 7.5 g/kg in food, asthmatic 4.57, healthy 2.58), the “airway resistance in response to MCh” value came out at 3.38 cm H2O·s/mL. In addition, in series [5], the blood level is 40000 ng/mL.

(Values after patent US20220087969A1, “METHOD FOR TREATING ASTHMA” (Olatec Therapeutics LLC, priority 2019, published 2022).)
